# Assay results taken from US8192962B2, “Processes for detecting toxic substances” (Daikin Industries, Ltd., priority 2001, dated 2012).
# Tested on: Energy system protein genes
# Experiment: DNA chip mRNA expression in yeast, energy system protein genes (Table 4)
# Assay type: cell-based, Saccharomyces cerevisiae S288C
# Summary of the method: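 S. cerevisiae S288C grown at 25° C in YPD were exposed in log phase for two hours to one toxic chemical at a growth-inhibiting, non-lethal concentration; untreated cells served as control. Poly(A) mRNA was reverse-transcribed with Cy3/Cy5-dUTP and hybridized to a whole-genome yeast DNA chip at 65° C for over 12 hours; values are fluorescence ratios versus untreated.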
smiles,measurement,setting,value
"COc1cc(CNC(=O)CCCCC=CC(C)C)ccc1O [(12), 8-methyl-N-vanillyl-6-nonenamide]",The level of expressed mRNA in the presence of chemical substance/The level of expressed mRNA in the absence of chemical substance,yeast gene YAL060W,0.8
same,The level of expressed mRNA in the presence of chemical substance/The level of expressed mRNA in the absence of chemical substance,"yeast gene YBL058W, cells incubated two hours with the chemical substance",0.8
same,The level of expressed mRNA in the presence of chemical substance/The level of expressed mRNA in the absence of chemical substance,"yeast gene YBL099W, cells incubated two hours with the chemical substance",1.0
same,The level of expressed mRNA in the presence of chemical substance/The level of expressed mRNA in the absence of chemical substance,"yeast gene YBR001C, cells incubated two hours with the chemical substance",1.0
same,The level of expressed mRNA in the presence of chemical substance/The level of expressed mRNA in the absence of chemical substance,"yeast gene YBR185C, cells incubated two hours with the chemical substance",0.7
same,The level of expressed mRNA in the presence of chemical substance/The level of expressed mRNA in the absence of chemical substance,"yeast gene YBR221C, cells incubated two hours with the chemical substance",1.3
same,The level of expressed mRNA in the presence of chemical substance/The level of expressed mRNA in the absence of chemical substance,yeast gene YCL040W,2.3
same,The level of expressed mRNA in the presence of chemical substance/The level of expressed mRNA in the absence of chemical substance,yeast gene YCR005C,0.5
same,The level of expressed mRNA in the presence of chemical substance/The level of expressed mRNA in the absence of chemical substance,yeast gene YCR012W,1.2
same,The level of expressed mRNA in the presence of chemical substance/The level of expressed mRNA in the absence of chemical substance,"yeast gene YCR046C, cells incubated two hours with the chemical substance",1.1
same,The level of expressed mRNA in the presence of chemical substance/The level of expressed mRNA in the absence of chemical substance,"yeast gene YCR105W, cells incubated two hours with the chemical substance",0.9
same,The level of expressed mRNA in the presence of chemical substance/The level of expressed mRNA in the absence of chemical substance,yeast gene YDL021W,2.4
same,The level of expressed mRNA in the presence of chemical substance/The level of expressed mRNA in the absence of chemical substance,"yeast gene YDL067C, cells incubated two hours with the chemical substance",1.0
same,The level of expressed mRNA in the presence of chemical substance/The level of expressed mRNA in the absence of chemical substance,"yeast gene YDL078C, cells incubated two hours with the chemical substance",0.8
same,The level of expressed mRNA in the presence of chemical substance/The level of expressed mRNA in the absence of chemical substance,"yeast gene YDL107W, cells incubated two hours with the chemical substance",1.0
same,The level of expressed mRNA in the presence of chemical substance/The level of expressed mRNA in the absence of chemical substance,yeast gene YDL174C,2.8
same,The level of expressed mRNA in the presence of chemical substance/The level of expressed mRNA in the absence of chemical substance,"yeast gene YDL181W, cells incubated two hours with the chemical substance",0.9
same,The level of expressed mRNA in the presence of chemical substance/The level of expressed mRNA in the absence of chemical substance,yeast gene YDR001C,1.1
same,The level of expressed mRNA in the presence of chemical substance/The level of expressed mRNA in the absence of chemical substance,"yeast gene YDR050C, cells incubated two hours with the chemical substance",1.4
same,The level of expressed mRNA in the presence of chemical substance/The level of expressed mRNA in the absence of chemical substance,"yeast gene YDR079W, cells incubated two hours with the chemical substance",1.1
same,The level of expressed mRNA in the presence of chemical substance/The level of expressed mRNA in the absence of chemical substance,"yeast gene YDR178W, cells incubated two hours with the chemical substance",1.3
same,The level of expressed mRNA in the presence of chemical substance/The level of expressed mRNA in the absence of chemical substance,yeast gene YDR231C,1.1
same,The level of expressed mRNA in the presence of chemical substance/The level of expressed mRNA in the absence of chemical substance,"yeast gene YDR298C, cells incubated two hours with the chemical substance",1.1
same,The level of expressed mRNA in the presence of chemical substance/The level of expressed mRNA in the absence of chemical substance,"yeast gene YDR377W, cells incubated two hours with the chemical substance",0.9
same,The level of expressed mRNA in the presence of chemical substance/The level of expressed mRNA in the absence of chemical substance,"yeast gene YDR529C, cells incubated two hours with the chemical substance",0.6
same,The level of expressed mRNA in the presence of chemical substance/The level of expressed mRNA in the absence of chemical substance,"yeast gene YEL024W, cells incubated two hours with the chemical substance",0.8
same,The level of expressed mRNA in the presence of chemical substance/The level of expressed mRNA in the absence of chemical substance,"yeast gene YEL039C, cells incubated two hours with the chemical substance",0.6
same,The level of expressed mRNA in the presence of chemical substance/The level of expressed mRNA in the absence of chemical substance,yeast gene YER178W,1.3
same,The level of expressed mRNA in the presence of chemical substance/The level of expressed mRNA in the absence of chemical substance,yeast gene YFL057C,1.0
same,The level of expressed mRNA in the presence of chemical substance/The level of expressed mRNA in the absence of chemical substance,yeast gene YFR053C,1.7
same,The level of expressed mRNA in the presence of chemical substance/The level of expressed mRNA in the absence of chemical substance,"yeast gene YGL018C, cells incubated two hours with the chemical substance",1.0
same,The level of expressed mRNA in the presence of chemical substance/The level of expressed mRNA in the absence of chemical substance,yeast gene YGL062W,1.6
same,The level of expressed mRNA in the presence of chemical substance/The level of expressed mRNA in the absence of chemical substance,"yeast gene YGL187C, cells incubated two hours with the chemical substance",0.8
same,The level of expressed mRNA in the presence of chemical substance/The level of expressed mRNA in the absence of chemical substance,"yeast gene YGL191W, cells incubated two hours with the chemical substance",0.9
same,The level of expressed mRNA in the presence of chemical substance/The level of expressed mRNA in the absence of chemical substance,"yeast gene YGL205W, cells incubated two hours with the chemical substance",1.1
same,The level of expressed mRNA in the presence of chemical substance/The level of expressed mRNA in the absence of chemical substance,"yeast gene YGL256W, cells incubated two hours with the chemical substance",0.9
same,The level of expressed mRNA in the presence of chemical substance/The level of expressed mRNA in the absence of chemical substance,yeast gene YGR043C,3.3
same,The level of expressed mRNA in the presence of chemical substance/The level of expressed mRNA in the absence of chemical substance,"yeast gene YGR062C, cells incubated two hours with the chemical substance, 25° C., YPD medium",1.0
same,The level of expressed mRNA in the presence of chemical substance/The level of expressed mRNA in the absence of chemical substance,"yeast gene YGR087C, cells incubated two hours with the chemical substance",1.2
same,The level of expressed mRNA in the presence of chemical substance/The level of expressed mRNA in the absence of chemical substance,"yeast gene YGR174C, cells incubated two hours with the chemical substance",0.9
same,The level of expressed mRNA in the presence of chemical substance/The level of expressed mRNA in the absence of chemical substance,yeast gene YGR192C,2.2
same,The level of expressed mRNA in the presence of chemical substance/The level of expressed mRNA in the absence of chemical substance,yeast gene YGR244C,1.9
same,The level of expressed mRNA in the presence of chemical substance/The level of expressed mRNA in the absence of chemical substance,yeast gene YGR254W,1.7
same,The level of expressed mRNA in the presence of chemical substance/The level of expressed mRNA in the absence of chemical substance,yeast gene YHR179W,2.2
same,The level of expressed mRNA in the presence of chemical substance/The level of expressed mRNA in the absence of chemical substance,yeast gene YIL160C,1.0
same,The level of expressed mRNA in the presence of chemical substance/The level of expressed mRNA in the absence of chemical substance,"yeast gene YIR031C, cells incubated two hours with the chemical substance",0.8
same,The level of expressed mRNA in the presence of chemical substance/The level of expressed mRNA in the absence of chemical substance,yeast gene YJL052W,2.4
same,The level of expressed mRNA in the presence of chemical substance/The level of expressed mRNA in the absence of chemical substance,"yeast gene YJL121C, cells incubated two hours with the chemical substance",0.6
same,The level of expressed mRNA in the presence of chemical substance/The level of expressed mRNA in the absence of chemical substance,"yeast gene YJL166W, cells incubated two hours with the chemical substance",0.7
same,The level of expressed mRNA in the presence of chemical substance/The level of expressed mRNA in the absence of chemical substance,"yeast gene YJL216C, cells incubated two hours with the chemical substance",1.0
same,The level of expressed mRNA in the presence of chemical substance/The level of expressed mRNA in the absence of chemical substance,yeast gene YJR009C,1.5
